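Method: 48-hour compound exposure of cells in 96-well plates, five concentrations, linear interpolation of endpoints. At the GI50, growth is halved. TGI is the concentration that stops growth completely.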
Key:
Assay in all cases: inhibition of tumour cell growth, NCI panel, 48 h; in the data active = GI50 below about 0.43 µM; inactive = the rest
SF-268 CNS = test system: SF-268 CNS
SK-OV-3 ovarian = test system: SK-OV-3 ovarian
K-562 leukemia = test system: K-562 leukemia
HT29 colon = test system: HT29 colon
HCT-15 colon = test system: HCT-15 colon
CCRF-CEM leukemia = test system: CCRF-CEM leukemia
U251 CNS = test system: U251 CNS
NCI-H226 lung = test system: NCI-H226 lung
LOX IMVI melanoma = test system: LOX IMVI melanoma
A498 renal = test system: A498 renal
TK-10 renal = test system: TK-10 renal
MOLT-4 leukemia = test system: MOLT-4 leukemia
MCF7 breast = test system: MCF7 breast
SN12C renal = test system: SN12C renal
OVCAR-4 ovarian = test system: OVCAR-4 ovarian
BT-549 breast = test system: BT-549 breast
SK-MEL-5 melanoma = test system: SK-MEL-5 melanoma
A549 NSCLC = test system: A549 NSCLC
RXF 393 renal = test system: RXF 393 renal
SNB-75 CNS = test system: SNB-75 CNS
UACC-62 melanoma = test system: UACC-62 melanoma
SK-MEL-28 melanoma = test system: SK-MEL-28 melanoma
CAKI-1 renal = test system: CAKI-1 renal
OVCAR-3 ovarian = test system: OVCAR-3 ovarian
KM12 colon = test system: KM12 colon
SR leukemia = test system: SR leukemia
MDA-MB-231 breast = test system: MDA-MB-231 breast
OVCAR-5 ovarian = test system: OVCAR-5 ovarian
HOP-62 NSCLC = test system: HOP-62 NSCLC
OVCAR-8 ovarian = test system: OVCAR-8 ovarian
COLO 205 colon = test system: COLO 205 colon
UO-31 renal = test system: UO-31 renal
RPMI-8226 leukemia = test system: RPMI-8226 leukemia
NCI/ADR-RES ovarian = test system: NCI/ADR-RES ovarian
ACHN renal = test system: ACHN renal
UACC-257 melanoma = test system: UACC-257 melanoma
NCI-H522 lung = test system: NCI-H522 lung
EKVX NSCLC = test system: EKVX NSCLC
SK-MEL-2 melanoma = test system: SK-MEL-2 melanoma
786-0 renal = test system: 786-0 renal
HCC-2998 colon = test system: HCC-2998 colon
HL-60(TB) leukemia = test system: HL-60(TB) leukemia
NCI-H460 lung = test system: NCI-H460 lung
DU-145 prostate = test system: DU-145 prostate
M14 melanoma = test system: M14 melanoma
SW-620 colon = test system: SW-620 colon
MALME-3M melanoma = test system: MALME-3M melanoma
SNB-19 CNS = test system: SNB-19 CNS
HS 578T breast = test system: HS 578T breast
SF-539 CNS = test system: SF-539 CNS
NCI-H23 lung = test system: NCI-H23 lung
T-47D breast = test system: T-47D breast
SF-295 CNS = test system: SF-295 CNS
IGROV1 ovarian = test system: IGROV1 ovarian
HCT-116 colon = test system: HCT-116 colon
HOP-92 NSCLC = test system: HOP-92 NSCLC
MDA-MB-435 = test system: MDA-MB-435
PC-3 prostate = test system: PC-3 prostate

COC(=O)C1=C(C(=O)Nc2cccnc2Cl)N(c2ccc(OC)cc2[N+](=O)[O-])C(c2ccc(C)cc2)=CC1c1ccc(OC)cc1OC (centres undefined)
62.9 µM: TGI (SK-OV-3 ovarian)
78.5 µM: TGI (SF-268 CNS)
68 µM: TGI (HOP-62 NSCLC)
> 90.1 µM: TGI (DU-145 prostate)
53.3 µM: TGI (MALME-3M melanoma)
52.5 µM: TGI (HL-60(TB) leukemia)
22.4 µM: TGI (MCF7 breast)
> 81.9 µM: TGI (EKVX NSCLC)
43.7 µM: TGI (OVCAR-3 ovarian)
65 µM: TGI (SK-MEL-2 melanoma)
21.6 µM: TGI (SR leukemia)
98.7 µM: TGI (HCT-116 colon)
49.3 µM: TGI (MOLT-4 leukemia)
50.6 µM: TGI (A498 renal)
> 85 µM: TGI (NCI-H23 lung)
16.7 µM: TGI (SF-539 CNS)
47.9 µM: TGI (HT29 colon)
27.8 µM: TGI (HCC-2998 colon)
49.8 µM: TGI (HCT-15 colon)
> 72.5 µM: TGI (M14 melanoma)
> 88.6 µM: TGI (SNB-19 CNS)
62.1 µM: TGI (MDA-MB-231 breast)
> 64.2 µM: TGI (TK-10 renal)
31.1 µM: TGI (OVCAR-8 ovarian)
> 87.7 µM: TGI (786-0 renal)
> 100 µM: TGI (K-562 leukemia) | TGI (OVCAR-4 ovarian) | TGI (BT-549 breast) | TGI (UACC-62 melanoma) | TGI (SK-MEL-28 melanoma) | TGI (CAKI-1 renal) | TGI (UACC-257 melanoma) | TGI (SF-295 CNS) | TGI (HOP-92 NSCLC) | TGI (MDA-MB-435) | TGI (PC-3 prostate)
88.3 µM: TGI (T-47D breast)
17 µM: TGI (LOX IMVI melanoma)
67.4 µM: TGI (HS 578T breast)
40.3 µM: TGI (U251 CNS)
22.7 µM: TGI (SW-620 colon)
> 84.9 µM: TGI (OVCAR-5 ovarian)
33.7 µM: TGI (IGROV1 ovarian)
40.9 µM: TGI (A549 NSCLC)
> 73.3 µM: TGI (SK-MEL-5 melanoma)
21.5 µM: TGI (RPMI-8226 leukemia)
> 76.2 µM: TGI (UO-31 renal)
72.3 µM: TGI (SNB-75 CNS)
> 79.3 µM: TGI (NCI-H460 lung)
38.1 µM: TGI (NCI-H226 lung)
> 36.8 µM: TGI (CCRF-CEM leukemia)
47.5 µM: TGI (NCI/ADR-RES ovarian)
35 µM: TGI (SN12C renal)
31.9 µM: TGI (COLO 205 colon)
> 81.6 µM: TGI (ACHN renal)
26.3 µM: TGI (NCI-H522 lung)
22.2 µM: TGI (RXF 393 renal)
16.3 µM: TGI (KM12 colon)

OCCCNc1nccc(-c2c(-c3ccc(F)cc3)nn3cc(C(F)(F)F)ccc23)n1
inactive: GI50 (SF-268 CNS) 16.3 µM | GI50 (SK-OV-3 ovarian) 13 µM | GI50 (K-562 leukemia) 10.4 µM | GI50 (HT29 colon) 7.73 µM | GI50 (HCT-15 colon) 8.1 µM | GI50 (CCRF-CEM leukemia) 11.4 µM | GI50 (U251 CNS) 19.3 µM | GI50 (NCI-H226 lung) 9.49 µM | GI50 (LOX IMVI melanoma) 15.3 µM | GI50 (A498 renal) 12.8 µM | GI50 (TK-10 renal) 15.9 µM | GI50 (MOLT-4 leukemia) 14.3 µM | GI50 (MCF7 breast) 15.1 µM | GI50 (SN12C renal) 13.3 µM | GI50 (OVCAR-4 ovarian) 10.8 µM | GI50 (BT-549 breast) > 25 µM | GI50 (SK-MEL-5 melanoma) 8.4 µM | GI50 (A549 NSCLC) 17.3 µM | GI50 (RXF 393 renal) 5.86 µM | GI50 (SNB-75 CNS) > 13.4 µM | GI50 (UACC-62 melanoma) 15.1 µM | GI50 (SK-MEL-28 melanoma) 15.9 µM | GI50 (CAKI-1 renal) > 21.7 µM | GI50 (OVCAR-3 ovarian) 15.1 µM | GI50 (KM12 colon) 11.1 µM | GI50 (SR leukemia) > 25 µM | GI50 (MDA-MB-231 breast) 24.6 µM | GI50 (OVCAR-5 ovarian) > 22.9 µM | GI50 (HOP-62 NSCLC) > 23.4 µM | GI50 (OVCAR-8 ovarian) 16.9 µM | GI50 (COLO 205 colon) 12.5 µM | GI50 (UO-31 renal) 7.07 µM | GI50 (RPMI-8226 leukemia) 22.9 µM | GI50 (NCI/ADR-RES ovarian) 8.25 µM | GI50 (ACHN renal) 9.23 µM | GI50 (UACC-257 melanoma) > 23.4 µM | GI50 (NCI-H522 lung) 16.7 µM | GI50 (EKVX NSCLC) 20.5 µM | GI50 (SK-MEL-2 melanoma) > 23.1 µM | GI50 (786-0 renal) 10.2 µM | GI50 (HCC-2998 colon) > 23.4 µM | GI50 (HL-60(TB) leukemia) > 19.6 µM | GI50 (NCI-H460 lung) 9.12 µM | GI50 (DU-145 prostate) 12.9 µM | GI50 (M14 melanoma) 15.4 µM | GI50 (SW-620 colon) > 25 µM | GI50 (MALME-3M melanoma) 14.8 µM | GI50 (SNB-19 CNS) > 25 µM | GI50 (HS 578T breast) 19.2 µM | GI50 (SF-539 CNS) > 25 µM | GI50 (NCI-H23 lung) > 25 µM | GI50 (T-47D breast) 8.42 µM | GI50 (SF-295 CNS) 10.3 µM | GI50 (IGROV1 ovarian) 12 µM | GI50 (HCT-116 colon) 11.7 µM | GI50 (HOP-92 NSCLC) 8.1 µM | GI50 (MDA-MB-435) 10.1 µM | GI50 (PC-3 prostate) 15.1 µM
19.1 µM: TGI (RXF 393 renal)
> 23.4 µM: TGI (T-47D breast)
> 25 µM: TGI (SF-268 CNS) | TGI (SK-OV-3 ovarian) | TGI (K-562 leukemia) | TGI (HT29 colon) | TGI (HCT-15 colon) | TGI (CCRF-CEM leukemia) | TGI (U251 CNS) | TGI (NCI-H226 lung) | TGI (LOX IMVI melanoma) | TGI (A498 renal) | TGI (TK-10 renal) | TGI (MOLT-4 leukemia) | TGI (MCF7 breast) | TGI (SN12C renal) | TGI (OVCAR-4 ovarian) | TGI (BT-549 breast) | TGI (SK-MEL-5 melanoma) | TGI (A549 NSCLC) | TGI (SNB-75 CNS) | TGI (UACC-62 melanoma) | TGI (SK-MEL-28 melanoma) | TGI (CAKI-1 renal) | TGI (OVCAR-3 ovarian) | TGI (KM12 colon) | TGI (SR leukemia) | TGI (MDA-MB-231 breast) | TGI (OVCAR-5 ovarian) | TGI (HOP-62 NSCLC) | TGI (OVCAR-8 ovarian) | TGI (COLO 205 colon) | TGI (UO-31 renal) | TGI (RPMI-8226 leukemia) | TGI (NCI/ADR-RES ovarian) | TGI (ACHN renal) | TGI (UACC-257 melanoma) | TGI (NCI-H522 lung) | TGI (EKVX NSCLC) | TGI (SK-MEL-2 melanoma) | TGI (786-0 renal) | TGI (HCC-2998 colon) | TGI (HL-60(TB) leukemia) | TGI (NCI-H460 lung) | TGI (DU-145 prostate) | TGI (M14 melanoma) | TGI (SW-620 colon) | TGI (MALME-3M melanoma) | TGI (SNB-19 CNS) | TGI (HS 578T breast) | TGI (SF-539 CNS) | TGI (NCI-H23 lung) | TGI (SF-295 CNS) | TGI (IGROV1 ovarian) | TGI (HCT-116 colon) | TGI (HOP-92 NSCLC) | TGI (MDA-MB-435) | TGI (PC-3 prostate)

From PubChem BioAssay (NCI)
